Assay results reported in patent publication US20130122024A1, “NEW BINDER-DRUG CONJUGATES (ADCS) AND USE THEREOF” (Bayer Intellectual Property GmbH, priority 2011, published 2013).
Entries after “also recorded” stand apart in the source; their conditions may differ. Square brackets hold non-standard residues; d marks the D form. Peptide text beside a SMILES is read from it. * marks the point of attachment. Dolaproine = CO[C@@H]([C@@H]1CCCN1)[C@@H](C)C(=O)O; Dil = CC[C@H](C)[C@H](NC)[C@@H](CC(=O)O)OC; X5 = C[C@@H](N*)[C@@H](O)c1ccccc1; NMeV = CN[C@H](C(=O)O)C(C)C

B1: Example 71 immunoconjugate (MF-Ta ADC) (antibody, human IgG1, lambda, V domains shown)
VH: QVELVQSGAEVKKPGESLKISCKGSGYSFTSYWIGWVRQAPGKGLEWMGIIDPGDSRTRYSPSFQGQVTISADKSISTAYLQWSSLKASDTAMYYCARGQLYGGTYMDGWGQGTLVTVSS
VL: DIALTQPASVSGSPGQSITISCTGTSSDIGGYNSVSWYQQHPGKAPKLMIYGVNNRPSGVSNRFSGSKSGNTASLTISGLQAEDEADYYCSSYDIESATPVFGGGTKLTVLG
modifications: auristatin linker-toxophore on cysteine sulphur

How the values were obtained:
[1] = Caco-2 flux assay for cell permeability; format: in vitro ADME; conditions: human, Caco-2 cells, B to A
Procedure: (§1) The cell permeability of a substance can be investigated by means of in vitro testing in a flux assay using Caco-2 cells [M. D. Troutman and D. R. Thakker, Pharm. Res. 20 (8), 1210-1224 (2003)]. For this purpose, the cells were cultured for 15-16 days on 24-well filter plates. For the determination of permeation, the respective working example was applied in a HEPES buffer to the cells either apically (A) or basally (B) and incubated for 2 hours. After 0 hours and after 2 hours, samples were taken from the cis and trans compartments. The samples were separated by HPLC (Agilent 1200, Böblingen, Germany) using reverse phase columns. The HPLC system was coupled via a Turbo Ion Spray Interface to a Triple Quadropol mass spectrometer API 4000 (Applied Biosystems Applera, Darmstadt, Germany). The permeability was evaluated on the basis of a Papp value, which was calculated using the formula published by Schwab et al. [D. Schwab et al., J. Med. Chem. 46, 1716-1725 (2003)].

Caco-2 cells = test: Caco-2 flux assay for cell permeability; format: in vitro ADME; conditions: 2 hours, B to A
Procedure: as §1

tubulin = test: Fluorescence-based microtubule (tubulin) polymerization assay; format: biochemical; conditions: for reduction in the polymerization rate: 1 μM
Procedure: Tubulin polymerization was investigated using the “Fluorescence-based Microtubule Polymerisation Assay Kit” from Cytoskeleton (Denver, Colo., USA; order number: BK011). With this assay, GTP is added to unpolymerized tubulin, allowing polymerization to take place spontaneously. The assay is based on the binding of the fluorophore 4′,6-di-amidino-2-phenylindole (DAPI) to tubulin. Free and bound DAPI can be differentiated on the basis of different emission spectra.
[…] In addition to the buffer control, paclitaxel, with a polymerization-increasing effect, and vinblastin, with a polymerization inhibiting effect, were run additionally as assay controls. Measurement was carried out using 96-well plates with a half base area. The kinetics of the tubulin polymerization were monitored in a Fluorimeter at 37° C. for 1 hour. The excitation wavelength was 355 nm, and emission was monitored at 460 nm. For the region of linear increase within the first 10 minutes, a calculation was made of the change in fluorescence per minute (ΔF/min), which represents the polymerization rate of the microtubuli. The potency of the test substances was quantified on the basis of their respective reduction of the polymerization rate.
The reduction in the tubulin polymerization rate occurs in dependence on the concentration of the test substance added.

[2] = Pharmacokinetics in the HT29 tumour model, non-transfected tumours; format: in vivo; conditions: after i.v. 16 mg/kg of Example 5; animals with nontransfected tumours
Procedure: Following intravenous administration of 16 mg/kg of Example 5, the plasma concentrations and tumour concentrations of Example 5 and also of potential metabolites such as, for example, of Example 64 were measured. […] In contrast, the AUC in the tumour in the nontransfected animals was about 8 times lower than in the transfected animals.
The measurement of the compound from Example 64 in plasma and tumour took place following precipitation of the proteins with methanol, by means of high-pressure liquid chromatography (HPLC) coupled to a tandem mass spectrometer (MS).
For the processing of 100 μL of plasma, it was admixed with 400 μL of methanol and 10 μL of internal standard (ISTD, 50 ng/mL in methanol) and shaken for 10 seconds. After centrifuging for 5 minutes at 16 000 g, 250 μL of supernatant were transferred to an autosampler vial, which was made up with 250 μL of ammonium acetate buffer (AAC, 10 mM, pH 6.8) and shaken again.
For the processing of a tumour, it was admixed with 4 times the amount of methanol. […] After again being shaken, the tumour sample was ready for measurement.
The measurement of both matrix samples took place, lastly, on the HPLC-coupled, atmospheric pressure ionization/tandem mass spectrometer by means of a Turbo Ion Spray Interface (TISP) on an API4000 instrument from SCIEX. The m/z transitions measured were as follows: […]

Mesothelin = Mesothelin (Homo sapiens, UniProt Q13421-3 37-598, GPI anchor); test: cell-based or functional assay
[3] = concentration of toxophore 1 μM
[4] = concentration of toxophore 10 μM

Molecule	Papp (B-A) (Caco-2 cells) [×10⁻⁶ cm/s]	reduction in the polymerization rate (tubulin)	Tubulin polymerization in the presence of toxophore in [%]. Tubulin polymerization rate at 1 μM MMAF set at 100% (tubulin; [3]) [%]	Tubulin polymerization in the presence of toxophore in [%]. Tubulin polymerization rate at 1 μM MMAF set at 100% (tubulin; [4]) [%]	also measured
CC[C@H](C)[C@@H]([C@@H](CC(=O)N1CCC[C@H]1[C@H](OC)[C@@H](C)C(=O)N[C@H](C)[C@@H](O)c1ccccc1)OC)N(C)C(=O)[C@@H](NC(=O)[C@@H](NC)C(C)C)C(C)C [MMAE, monomethylauristatin E, reference compound] (H-[NMeV]V[Dil][Dolaproine]-X5)	–	–	–	–	Papp B→A at 2 h [1]: 7.3 ×10⁻⁶ cm/s
CC[C@H](C)[C@@H]([C@@H](CC(=O)N1CCC[C@H]1[C@H](OC)[C@@H](C)C(=O)N[C@@H](Cc1ccccc1)C(=O)O)OC)N(C)C(=O)[C@@H](NC(=O)[C@@H](NC)C(C)C)C(C)C [MMAF, Monomethylauristatin F, reference compound] (H-[NMeV]V[Dil][Dolaproine]F-OH)	7.3	40-45%	100	34	effect on tubulin polymerization (tubulin; 100 μM): complete cessation of polymerization; also recorded: inhibited completely; Tubulin polymerization in the presence of toxophore in [%]. Tubulin polymerization rate at 1 μM MMAF set at 100% (tubulin; concentration of toxophore 100 μM): 0%
CC[C@H](C)[C@@H]([C@@H](CC(=O)N1CCC[C@H]1[C@H](OC)[C@@H](C)C(=O)N[C@@]1(C(=O)N2CCCCO2)C[C@@H]1c1ccccc1)OC)N(C)C(=O)[C@@H](NC(=O)[C@H](C(C)C)N(C)CCCC(=O)NNC(=O)CCCCCN1C(=O)CC(SC[C@H](N)C(=O)O)C1=O)C(C)C (stereo partly drawn) [Example 64, N-(4-{2-[6-(3-{[(2R)-2-Amino-2-carboxyethyl]sulphanyl}-2,5-dioxopyrrolidin-1-yl)hexanoyl]hydrazino}-4-oxobutyl)-N-methyl-L-valyl-N-[(3R,4S,5S)-3-methoxy-1-{(2S)-2-[(1R,2R)-1-methoxy-2-methyl-3-{[(1S,2R)-1-(1,2-oxazinan-2-ylcarbonyl)-2-phenylcyclopropyl]amino}-3-oxopropyl]pyrrolidin-1-yl}-5-methyl-1-oxoheptan-4-yl]-N-methyl-L-valinamide]	0.25	41%	120	–	exposure in plasma [2]: identical to the exposure in plasma in animals with transfected tumours
CC[C@H](C)[C@@H]([C@@H](CC(=O)N1CCC[C@H]1[C@H](OC)[C@@H](C)C(=O)N[C@@H](Cc1c[nH]c2ccccc12)C(=O)O)OC)N(C)C(=O)[C@@H](NC(=O)[C@H](C(C)C)N(C)CCCC(=O)NNC(=O)CCCCCN1C(=O)CC(SC[C@H](N)C(=O)O)C1=O)C(C)C (stereo partly drawn) [Example 63, N-(4-{2-[6-(3-{[(2R)-2-Amino-2-carboxyethyl]sulphanyl}-2,5-dioxopyrrolidin-1-yl)hexanoyl]hydrazino}-4-oxobutyl)-N-methyl-L-valyl-N-[(3R,4S,5S)-1-{(2S)-2-[(1R,2R)-3-{[(1S)-1-carboxy-2-(1H-indol-3-yl)ethyl]amino}-1-methoxy-2-methyl-3-oxopropyl]pyrrolidin-1-yl}-3-methoxy-5-methyl-1-oxoheptan-4-yl]-N-methyl-L-valinamide]	0.16	–	–	27	–
B1	–	–	–	–	HT29 meso+ IC50 [nM] (MTT proliferation) (Mesothelin): 22 nM
